Several values for one entry are separate records, joined by “and”; a condition that tells them apart may be missing. Equal values may be shown once.
Columns and labels:
Assay type in all cases: binding
[1] = target: T1, LC3B (Homo sapiens, UniProt Q9GZQ8); experiment: Thermal shift assay with LC3B; conditions: 15 µM LC3B; 60 µM compound; Glo-Melt dye
Procedure: For thermal shift analysis, 15 µM of human LC3B was dispensed into 384-well plates (Hard-Shell 384-well 480 PCR plates, BioRAD #HSR4805) in buffer (50 mM Tris/HCl pH 7.4, 100 mM NaCl, 1 mM GSH and 0.02% CHAPS) with a Certus Flex liquid dispenser (Gyger). 60 µM compounds in DMSO (n4 or DMSO (0.6%) as control were added with an Echo 520 acoustic liquid handler (Labcyte). Glo-Melt dye was added (final concentration: 1/100), plates sealed with Lightcycler 480 Sealing Foils (Roche, #04 729 757 001) and mixed by short centrifugation (1 min, 60 g and room temeprature). A Lightcycler 480 II (Roche) was used for thermal shift curves with a temperature gradient from 20 to 95 °C according to the manufacturer´s protocol. Protein melting curves were analyzed, and the difference in meting temperature (ΔTm) was calculated with LightCycler Thermal Shift Analysis software (ROCHE) and visualized by Graphpad Prism (Version 9.5.1).

[2] = target: T2, DCAF11 (Homo sapiens, UniProt Q8TEB1); experiment: In-gel fluorescence labelling of purified DCAF11; conditions: 40 min; in-gel fluorescence
Procedure: Purified DCAF11 protein (1 μg, Origene, TP760719) was diluted in PBS buffer that is mixed with compound 2 or BODIPY derivative 18 at the indicated concentration at room temperature. Samples were diluted with 5 × SDS sample loading buffer and heated at 95 °C for 5 min. Proteins were separated using SDS-PAGE and were visualized using the ChemiDoc MP Imaging System (BIO-RAD) at 488 nm and the results were analyzed by Image Lab (BIORAD).

[3] = target: T1, LC3B; experiment: Fluorescence polarization with LC3B protein; design: His (N); made in house; host or cells: E. coli BL21DE3 RIL; conditions: for Fluorescence Polarization (mP): probe 18 at 100 µM
Procedure: The LC3B open reading frame was cloned into pOPINE-NHis by the Dortmund protein Facility (DPF). pOPINE-NHis-LC3B was transformed into BL21DE3 RIL K+. Cells were cultured in TB medium supplemented with ampicillin and chloramphenicol (Amp/Cam), 1% glucose and 2 mM MgSO4. A 10 L culture was incubated in TB/Amp with 0.01 % lactose monohydrate, 2 mM MgSO4 for 4 h at 37 °C followed by overnight incubation at 20 °C. Cells were lysed using sonication in a buffer containing 50 mM HEPES (pH 7.5), 300 mM NaCl, 10 mM imidazole, 1 mM 2-mercaptoethanol, 1 mM PMSF and DNase. Upon centrifugation, the supernatant was applied onto Ni NTA column. The column was washed using 50 mM HEPES (pH 7.5), 300 mM NaCl, 30 mM imidazole, 1 mM 2-mercaptoethanol. The protein was eluted in 50 mM HEPES pH 7.5, 300 mM NaCl, 300 mM imidazole, 1 mM 2-mercaptoethanol prior to size exclusion chromatography using 26/60 G75 column and 25 mM HEPES pH 7.5, 150 mM NaCl and1 mM DTE.
The assay was performed in black, 384 well plates with a total volume of 20 µl per well using a buffer solution comprising 50 mM Tris, 300 mM NaCl and 1 mM 2-mercaptoethanol, pH 7.5. The BODIPY labelled compound 18 was tested at a final concentration of 100 µM, and the LC3B protein was titrated in two-fold dilution series. The plates were incubated at 20°C for 30 min, and fluorescence polarization was measured using a Tecan Spark plate reader at ex/em 502 / 511 nm.

[4] = target: T2, DCAF11; experiment: Affinity-based enrichment (biotin-streptavidin pulldown) in Hep G2 cells overexpressing HA-DCAF11; design: host or cells: Hep G2; conditions: Hep G2 cells overexpressing HA-DCAF11; 10 μM probe, 2 h
Procedure: Hep G2 cells (1 × 10^6 cells/well) were seeded in 6-well plates and incubated for 24 h. On the next day, the cells were transfected with 1 µg pCMV3-N-HA-DCAF11 plasmid (Sino Biological, HG16257-NY) or 1 µg empty vector (pcDNA3.1(+), Thermo Fisher, V79020) and 2.5 µL FuGENE® HD transfection reagent (Promega, E2311) per well. The cells were incubated for 48 h prior to treatment with 100 μM compound 2 for 1 h. […] The cells were washed with ice-cold PBS, then lysed in lysis buffer (150 mM sodium chloride, 1% NP-40, 50 mM TRIS-HCl, pH 8.0 with complete protease inhibitor cocktail (Roche, 11836170001)) for 30 min on ice. After centrifugation at 16,000 x g, the supernatant was transferred into a new tube and the protein concentration was determined using the DC protein assay (BIO-RAD, 5000116).
The supernatant was discarded and 1 mg of lysate in 500 µL lysis buffer was added to the beads and incubated for 1 h at room temperature with overhead rotation. The beads were washed twice with 500 µL washing buffer (50 mM PIPES (pH 7.4), 50 mM NaCl, 75 mM MgCl2, 5 mM EGTA, 0.1% NP-40, 0.1% Triton X-100, 0.1% Tween20) and twice with PBS for 10 min each at room temperature with overhead rotation. Enriched proteins were eluted by boiling of the beads at 95 °C for 5 min in 20 µL of a supersaturated (25 mM) biotin solution and visualized by Western Blotting as described above.

T2 sequence (Q8TEB1 whole entry): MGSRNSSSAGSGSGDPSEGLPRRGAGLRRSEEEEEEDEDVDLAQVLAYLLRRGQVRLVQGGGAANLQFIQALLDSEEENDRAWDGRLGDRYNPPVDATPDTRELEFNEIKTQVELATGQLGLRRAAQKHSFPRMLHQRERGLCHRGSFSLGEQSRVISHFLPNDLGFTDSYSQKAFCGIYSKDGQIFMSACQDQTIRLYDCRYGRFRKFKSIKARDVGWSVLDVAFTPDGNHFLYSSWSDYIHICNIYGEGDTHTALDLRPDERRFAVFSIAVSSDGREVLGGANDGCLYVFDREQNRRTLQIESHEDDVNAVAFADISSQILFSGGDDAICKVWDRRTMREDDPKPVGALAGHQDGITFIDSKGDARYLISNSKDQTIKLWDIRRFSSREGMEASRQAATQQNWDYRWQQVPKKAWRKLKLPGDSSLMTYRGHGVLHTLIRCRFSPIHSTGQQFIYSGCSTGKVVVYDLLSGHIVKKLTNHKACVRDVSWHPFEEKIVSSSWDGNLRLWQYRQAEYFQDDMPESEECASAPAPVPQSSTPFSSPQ

Compound: DC-LC3in-D5 [reference compound]
- change of melting temperature of LC3B (ΔTm) [1]: 13 °C

Compound: Cc1cc(C)n2c1C=C1C=CC(CCC(=O)NCCOCCOCCOCCOc3c(Br)cc(C=C4C(=O)Nc5ccc(Br)cc54)cc3Br)=[N+]1[B-]2(F)F [Compound 18]
- binding (fluorescence labelling) to purified DCAF11 [2]: binds to purified DCAF11 in a concentration-dependent manner
- binding to LC3B in fluorescence polarization ([3]; 18 at 100 µM, LC3B titrated): failed to bind
- Fluorescence Polarization (mP) ([3]; LC3B protein concentration 0.00610352 µM): 132 mP and 130 mP and 100 mP and 97 mP
- Fluorescence Polarization (mP) ([3]; LC3B protein concentration 0.012207 µM): 127 mP and 128 mP and 102 mP and 96 mP
- Fluorescence Polarization (mP) ([3]; LC3B protein concentration 0.0244141 µM): 129 mP and 121 mP and 108 mP and 110 mP
- Fluorescence Polarization (mP) ([3]; LC3B protein concentration 0.0488281 µM): 132 mP and 133 mP and 107 mP and 105 mP
- Fluorescence Polarization (mP) ([3]; LC3B protein concentration 0.0976562 µM): 127 mP and 130 mP and 115 mP and 111 mP
- Fluorescence Polarization (mP) ([3]; LC3B protein concentration 0.195312 µM): 131 mP and 136 mP and 106 mP and 103 mP
- Fluorescence Polarization (mP) ([3]; LC3B protein concentration 0.390625 µM): 133 mP and 127 mP and 116 mP and 109 mP
- Fluorescence Polarization (mP) ([3]; LC3B protein concentration 0.78125 µM): 135 mP and 112 mP and 108 mP
- Fluorescence Polarization (mP) ([3]; LC3B protein concentration 1.5625 µM): 138 mP and 134 mP and 112 mP and 113 mP
- Fluorescence Polarization (mP) ([3]; LC3B protein concentration 3.125 µM): 132 mP and 138 mP and 112 mP and 108 mP
- Fluorescence Polarization (mP) ([3]; LC3B protein concentration 6.25 µM): 132 mP and 131 mP and 113 mP and 111 mP
- Fluorescence Polarization (mP) ([3]; LC3B protein concentration 12.5 µM): 108 mP and 101 mP and 138 mP and 135 mP
- Fluorescence Polarization (mP) ([3]; LC3B protein concentration 25 µM): 110 mP and 132 mP and 130 mP
- Fluorescence Polarization (mP) ([3]; LC3B protein concentration 50 µM): 107 mP and 101 mP and 132 mP and 133 mP
- Fluorescence Polarization (mP) ([3]; LC3B protein concentration 100 µM): 102 mP and 138 mP and 134 mP

Compound: O=C(CCCCC1SC[C@@H]2NC(=O)N[C@H]12)NCCOc1c(Br)cc(/C=C2\C(=O)Nc3ccc(Br)cc32)cc1Br (stereo partly shown) [Compound 14]
- enrichment of DCAF11 by pulldown [4]: enriched DCAF11 protein

From PMC10689823, “Discovery of a Drug-like, Natural Product-Inspired DCAF11 Ligand Chemotype” (Nature Communications, 2023)
